19 compounds from US20240190889A1, “NEW CYCLOPENTA-THIENO-DIAZEPINE DERIVATIVES AS GABA A GAMMA1 POSITIVE ALLOSTERIC MODULATORS” (Hoffmann-La Roche Inc., priority 2021, published 2024) can be followed below.

In experiment [1] the target is human GABAA α5β2γ1 receptor (Homo sapiens (Human), UniProt P31644+Q8N1C3). The experiment can be described thus: Radioligand binding assay, competition for [3H]RO7239181, γ1-containing GABAA subtypes. The conditions noted are these: membranes from HEK293F cells, mean of two determinations. How it is done: Membrane Preparation and Binding Assay for γ1-containing GABAA Subtypes
The affinity of compounds at GABAA γ1 subunit-containing receptors was measured by competition for [^3H]RO7239181 (67.3 Ci/mmol: Roche) binding to membranes from HEK293F cells (ThermoFisher R79007) expressing human (transiently transfected) receptors of composition α5β2γ1, α2β2γ1, α1β2γ1. For better protein expression of the α2 subunit-containing receptors, the 28 amino acid long signal peptide (Metl to Ala28) of the human GABAA α2 subunit was substituted by the 31 amino acid long signal peptide (Met1 to Ser31) of human GABAA α5 subunit.
Harvested pellets from HEK293F cells expressing the different GABAA receptor subtypes were resuspended in Mannitol Buffer pH 7.2-7.4 (Mannitol 0.29 M, Tricthylamine 10 mM. Acetic acid 10 mM. EDTA 1 mM plus protease inhibitors (20 tablets Complete. Roche Diagnostics Cat. No. 05 056 489 001 per liter)), washed two times and then resuspended at 1:10 to 1:15 dilution in the same buffer. Cell disruption was performed by stirring the suspension in a Parr vessel #4637 at 435 psi for 15 minutes, and then the suspensions were centrifuged at 1000×g for 15 minutes at 4° C. (Beckman Avanti J-HC: rotor JS-4.2). The supernatant (S1) was transferred in a 21 Schott flask and the pellet (P1) was resuspended with Mannitol Buffer up to 175 ml. The resuspended pellet was transferred into a 250 ml Corning centrifugal beaker and centrifuged at 1500 ×g for 10 minutes at 4° C. (Beckman Avanti J-HC: rotor JS-4.2). The supernatant (S1) was then transferred in the 21 Schott flask and the pellet was discarded. The supernatants (S1) were centrifuged in 500ml Beckman polypropylene centrifugal beaker at 15 000×g for 30 minutes at 4° C. (Beckman Avanti J-20 XP; rotor JLA-10.500). The pellet (P2) was resuspended with Mannitol Buffer 1:1 and frozen at −80° C. The supernatant (S2) was centrifuged in 100 ml Beckman polypropylene centrifugal tubes at 48000×g for 50 minutes at 4 °C (Beckman Avanti J-20 XP: rotor JA-18). The supernatant (S3) was discarded and the pellet (P3) was resuspended with 1:1 Mannitol Buffer. The P2 and P3 protein concentration was determined with the BIORAD Standard assay method with bovine serum albumin as standard and measured on the NANO-Drop 1000. The membrane suspension was aliquots (500μl per tube) and stored at −80° C. until required.
Membrane homogenates were resuspended and polytronised (Polytron PT1200E Kinematica AG) in Potassium Phosphate 10 mM, KCl 100 mM binding buffer at pH 7.4 to a final assay concentration determined with a previous experiment.
Radioligand binding assays were carried out in a volume of 200 μL (96-well plates) which contained 100 μL of cell membranes. [^3H]RO7239181 at a concentration of 1.5 nM (α5β2γ1) or 20-30 nM (α1β2γ1, α2β2γ1) and the test compound in the range of [0.3-10000]33 10^−9 M. Nonspecific binding was defined by […] (α5β2γ1) and […] RO7239181 and typically represented less than 5% (α5β2γ1) and less than 20% (α1β2γ1, α2β2γ1) of the total binding. Assays were incubated to equilibrium for 1 hour at 4° C. and then, membranes were filtered onto unifilter (96-well white microplate with bonded GF/C filters preincubated 20-50 minutes in 0.3% Polyethylenimine) with a Filtermate 196 harvester (Packard BioScience) and washed 4 times with cold Potassium Phosphate 10 mM pH 7.4. KCl 100 mM binding buffer. After anhydrousing, filter-retained radioactivity was detected by liquid scintillation counting. Ki values were calculated using Excel-Fit (Microsoft) and are the means of two determinations.
Representative test results, obtained by the above described assay measuring binding affinity to HEK293 cells expressing human (h) receptors, are shown in the Table 1.

Experiment [2] deals with human GABAA α1β2γ1 receptor (Homo sapiens (Human), UniProt P14867+Q8N1C3). The description is as above.

`C[C@@H]1N=C(c2c(F)cccc2Cl)c2c(sc3c2C[C@@H](C(F)F)C3)-n2c(-c3cccnn3)nnc21` [Example 12, (7S,13R)-9-(2-chloro-6-fluoro-phenyl)-13-(difluoromethyl)-7-methyl-3-pyridazin-3-yl-16-thia-2,4,5,8-tetrazatetracyclo [8.6.0.02,6.011,15]hexadeca-1(10),3,5,8,11(15)-pentaene] yielded a Ki in experiment [1] of 3.7 nM.
For the compound `Cc1nnc2n1-c1sc3c(c1C(c1c(F)cccc1Cl)=NC2)C[C@@H](C(F)F)C3` [Example 4, (13R)-9-(2-chloro-6-fluoro-phenyl)-13-(difluoromethyl)-3-methyl-16-thia-2,4,5,8-tetrazatetracyclo [8.6.0.02,6.011,15]hexadeca-1(10),3,5,8,11(15)-pentaene], the affinity in experiment [1] corresponds to a Ki of 1.2 nM. This Ki is about 3.1-fold lower than that of the compound before.
On to `Cc1nnc2n1-c1sc3c(c1C(c1c(F)cccc1F)=N[C@H]2C)C[C@@H](C(F)F)C3` [Example 5, (7S,13R)-13-(difluoromethyl)-9-(2,6-difluorophenyl)-3,7-dimethyl-16-thia-2,4,5,8-tetrazatetracyclo [8.6.0.02,6.011,15]hexadeca-1(10),3,5,8,11(15)-pentaene], for which the Ki in experiment [2] came to 14.4 nM; in experiment [1], 1.2 nM.
Regarding `Cc1nc2n(n1)-c1sc3c(c1C(c1c(F)cccc1F)=N[C@H]2C)C[C@@H](C(F)F)C3` [Example 16, (7S,13R)-13-(difluoromethyl)-9-(2,6-difluorophenyl)-4,7-dimethyl-16-thia-2,3,5,8-tetrazatetracyclo [8.6.0.02,6.011,15]hexadeca-1(10),3,5,8,11(15)-pentaene], the Ki in experiment [1] came to 1 nM.
For `Cc1nc2n(n1)-c1sc3c(c1C(c1c(F)cccc1F)=N[C@H]2C)C[C@H](C(F)F)C3` [Example 17, (7S,13S)-13-(difluoromethyl)-9-(2,6-difluorophenyl)-4,7-dimethyl-16-thia-2,3,5,8-tetrazatetracyclo [8.6.0.02,6.011,15]hexadeca-1(10),3,5,8,11(15)-pentaene], in experiment [1], the affinity corresponds to a Ki of 31.6 nM.
Compound `Cc1nnc2n1-c1sc3c(c1C(c1c(F)cccc1Cl)=N[C@H]2C)C[C@@H](C(F)F)C3` [Example 9, (7S,13R)-9-(2-chloro-6-fluoro-phenyl)-13-(difluoromethyl)-3,7-dimethyl-16-thia-2,4,5,8-tetrazatetracyclo [8.6.0.02,6.011,15]hexadeca-1(10),3,5,8,11(15)-pentaene] returned a Ki in experiment [1] of 1.6 nM.
The compound `C[C@@H]1N=C(c2c(F)cccc2Cl)c2c(sc3c2C[C@@H](C(F)F)C3)-n2c(C3CC3)nnc21` [Example 11, (7S,13R)-9-(2-chloro-6-fluoro-phenyl)-3-cyclopropyl-13-(difluoromethyl)-7-methyl-16-thia-2,4,5,8-tetrazatetracyclo [8.6.0.02,6.011,15]hexadeca-1(10),3,5,8,11(15)-pentaene] had a Ki in experiment [1] of 3.4 nM.
For the compound `C[C@@H]1N=C(c2c(F)cccc2F)c2c(sc3c2C[C@@H](C(F)F)C3)-n2nc(C(=O)NCCO)nc21` [Example 18, (7S,13R)-13-(difluoromethyl)-9-(2,6-difluorophenyl)-N-(2-hydroxyethyl)-7-methyl-16-thia-2,3,5,8-tetrazatetracyclo [8.6.0.02,6.011,15]hexadeca-1(10),3,5,8,11(15)-pentaene-4-carboxamide], in experiment [1], the Ki came out at 2.5 nM.
In experiment [1], `Fc1cccc(Cl)c1C1=NCc2nnc(C3CC3)n2-c2sc3c(c21)C[C@@H](C(F)F)C3` [Example 6, (13R)-9-(2-chloro-6-fluoro-phenyl)-3-cyclopropyl-13-(difluoromethyl)-16-thia-2,4,5,8-tetrazatetracyclo [8.6.0.02,6.011,15]hexadeca-1(10),3,5,8,11(15)-pentaene] gave a Ki of 3.4 nM.
Regarding `Fc1cccc(F)c1C1=NCc2nnc(-c3cccnn3)n2-c2sc3c(c21)C[C@@H](C(F)F)C3` [Example 10, (13R)-13-(difluoromethyl)-9-(2,6-difluorophenyl)-3-pyridazin-3-yl-16-thia-2,4,5,8-tetrazatetracyclo [8.6.0.02,6.011,15]hexadeca-1(10),3,5,8,11(15)-pentaene], the affinity in experiment [1], expressed as Ki, was 3 nM. This Ki and that of the compound before are within 1.5-fold of each other.
`Cc1cnc2n1-c1sc3c(c1C(c1c(F)cccc1F)=N[C@H]2C)C[C@@H](C(F)F)C3` [Example 20, (7S,13R)-13-(difluoromethyl)-9-(2,6-difluorophenyl)-3,7-dimethyl-16-thia-2,5,8-triazatetracyclo [8.6.0.02,6.011,15]hexadeca-1(10),3,5,8,11(15)-pentaene]: the affinity in experiment [1], expressed as Ki, was 3.6 nM.
The same measure, in the same setting: the figure for `Cc1nnc2n1-c1sc3c(c1C(c1c(F)cccc1F)=NC2)C[C@@H](C#N)C3` [Example 2, (13R)-9-(2,6-difluorophenyl)-3-methyl-16-thia-2,4,5,8-tetrazatetracyclo [8.6.0.02,6.011,15]hexadeca-1(10),3,5,8,11(15)-pentaene-13-carbonitrile] is 16.3 nM; for `C[C@@H]1N=C(c2c(F)cccc2F)c2c(sc3c2C[C@@H](C(F)F)C3)-n2c(CO)cnc21` [Example 21, [(7S,13R)-13-(difluoromethyl)-9-(2,6-difluorophenyl)-7-methyl-16-thia-2,5,8-triazatetracyclo [8.6.0.02,6.011,15]hexadeca-1(10),3,5,8,11(15)-pentaen-3-yl]methanol] it is 4.7 nM.
As to `C[C@@H]1N=C(c2c(F)cccc2F)c2c(sc3c2C[C@@H](C(F)F)C3)-n2c(C3CC3)nnc21` [Example 8, (7S,13R)-3-cyclopropyl-13-(difluoromethyl)-9-(2,6-difluorophenyl)-7-methyl-16-thia-2,4,5,8-tetrazatetracyclo [8.6.0.02,6.011,15]hexadeca-1(10),3,5,8,11(15)-pentaene], the Ki in experiment [1] came out at 1.9 nM.
`C[C@@H]1N=C(c2c(F)cccc2F)c2c(sc3c2C[C@@H](C(F)F)C3)-n2nc(C(=O)N3CCS(=O)(=O)CC3)nc21` [Example 19, [(7S,13R)-13-(difluoromethyl)-9-(2,6-difluorophenyl)-7-methyl-16-thia-2,3,5,8-tetrazatetracyclo [8.6.0.02,6.011,15]hexadeca-1(10),3,5,8,11(15)-pentaen-4-yl]-(1,1-dioxo-1,4-thiazinan-4-yl)methanone] showed a Ki in experiment [1] of 4.6 nM.
Consider `Fc1cccc(F)c1C1=NCc2nnc(C3CC3)n2-c2sc3c(c21)C[C@@H](C(F)F)C3` [Example 7, (13R)-3-cyclopropyl-13-(difluoromethyl)-9-(2,6-difluorophenyl)-16-thia-2,4,5,8-tetrazatetracyclo [8.6.0.02,6.011,15]hexadeca-1(10),3,5,8,11(15)-pentaene], for which the affinity in experiment [1], expressed as Ki, was 2.1 nM. This Ki is about 2.2-fold lower than that of the compound before.
In experiment [1], `Cc1nnc2n1-c1sc3c(c1C(c1c(F)cccc1F)=NC2)C[C@@H](C)C3` [Example 14, (13R)-9-(2,6-difluorophenyl)-3,13-dimethyl-16-thia-2,4,5,8-tetrazatetracyclo [8.6.0.02,6.011,15]hexadeca-1(10),3,5,8,11(15)-pentaene] yielded an inhibitory constant (Ki) of 1.6 nM.
Same read-out and setting: the figure for `Cc1nnc2n1-c1sc3c(c1C(c1c(F)cccc1F)=N[C@H]2C)C[C@@H](C)C3` [Example 15, (7S,13R)-9-(2,6-difluorophenyl)-3,7,13-trimethyl-16-thia-2,4,5,8-tetrazatetracyclo [8.6.0.02,6.011,15]hexadeca-1(10),3,5,8,11(15)-pentaene] is 1.4 nM; for `Cc1nnc2n1-c1sc3c(c1C(c1c(F)cccc1F)=N[C@H]2C)C[C@@H](C(F)(F)F)C3` [Example 13, (7S,13R)-9-(2,6-difluorophenyl)-3,7-dimethyl-13-(trifluoromethyl)-16-thia-2,4,5,8-tetrazatetracyclo [8.6.0.02,6.011,15]hexadeca-1(10),3,5,8,11(15)-pentaene] it is 5.9 nM.
